Experimental data reported in patent US20200062773A1, “4,4a,5,7-TETRAHYDRO-3H-FURO[3,4-b]PYRIDINYL COMPOUNDS” (Janssen Pharmaceutlca NV, priority 2016, published 2020).

What was measured:
[1] = biological target: T1, BACE1 (Homo sapiens, UniProt P56817); assay: BACE1 biochemical FRET based assay; details: Method 1: recombinant BACE1 1 μg/ml, 120 min at room temperature, pH 5.0; for IC50: read-out: Biochemical FRET based assay pIC50 (converted)
T1 construct: recombinant BACE1 protein in a final concentration of 1 μg/ml
T1 sequence (P56817 46-501): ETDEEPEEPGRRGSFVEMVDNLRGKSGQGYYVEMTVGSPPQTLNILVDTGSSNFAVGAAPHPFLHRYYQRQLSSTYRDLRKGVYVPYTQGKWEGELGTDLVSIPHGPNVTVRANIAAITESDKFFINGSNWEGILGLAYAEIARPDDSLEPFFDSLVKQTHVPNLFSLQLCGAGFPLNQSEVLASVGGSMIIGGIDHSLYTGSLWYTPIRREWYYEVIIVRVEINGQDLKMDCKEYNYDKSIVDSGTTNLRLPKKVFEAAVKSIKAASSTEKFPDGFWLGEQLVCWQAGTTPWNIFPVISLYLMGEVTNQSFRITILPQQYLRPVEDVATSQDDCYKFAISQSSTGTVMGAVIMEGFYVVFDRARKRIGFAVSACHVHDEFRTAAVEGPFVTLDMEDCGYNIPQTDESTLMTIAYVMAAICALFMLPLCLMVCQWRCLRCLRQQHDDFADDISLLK
Excerpt: BACE1 Biochemical Fret Based Assay
(§1) This assay is a Fluorescence Resonance Energy Transfer Assay (FRET) based assay. The substrate for this assay is an APP derived 13 amino acids peptide that contains the ‘Swedish’ Lys-Met/Asn-Leu mutation of the amyloid precursor protein (APP) beta-site APP-cleaving enzyme cleavage site. This substrate also contains two fluorophores: (7-methoxycoumarin-4-yl) acetic acid (Mca) is a fluorescent donor with excitation wavelength at 320 nm and emission at 405 nm and 2,4-Dinitrophenyl (Dnp) is a proprietary quencher acceptor. […] Upon cleavage by BACE1, the fluorophore Mca is separated from the quenching group Dnp, restoring the full fluorescence yield of the donor. The increase in fluorescence is linearly related to the rate of proteolysis.
Briefly in a 384-well format recombinant BACE1 protein in a final concentration of 1 μg/ml is incubated for 120 minutes at room temperature with 10 μm substrate in incubation buffer (40 mM Citrate buffer pH 5.0, 0.04% PEG, 4% DMSO) in the absence or presence of compound. Next the amount of proteolysis is directly measured by fluorescence measurement at T=0 and T=120 (excitation at 320 nm and emission at 405 nm). Results are expressed in RFU (Relative Fluorescence Units), as difference between T120 and T0.
(§2) A best-fit curve is fitted by a minimum sum of squares method to the plot of % Controlmin versus compound concentration. From this an IC50 value (inhibitory concentration causing 50% inhibition of activity) can be obtained.

[2] = system: Abeta 1-42 produced and secreted into the medium of human neuroblastoma SKNBE2 cells; assay: Cellular αLisa assay in SKNBE2 cells; type: cell-based; details: human neuroblastoma SKNBE2 cells expressing hAPP695, 18 hours incubation; for IC50: Homo sapiens, SKNBE2, 18 h, read-out: Cellular αLisa assay in SKNBE2 cells Abeta 42 pIC50 (converted)
Description: Cellular αLisa Assay in SKNBE2 Cells
In two αLisa assays the levels of Abeta 1-42 produced and secreted into the medium of human neuroblastoma SKNBE2 cells are quantified. The assay is based on the human neuroblastoma SKNBE2 expressing the wild type Amyloid Precursor Protein (hAPP695). The compounds are diluted and added to these cells, incubated for 18 hours and then measurements of Abeta 1-42 are taken. Abeta 1-42 are measured by sandwich αLisa. αLisa is a sandwich assay using biotinylated antibody AbN/25 attached to streptavidin coated beads and antibody cAb42/26 conjugated acceptor beads for the detection of Abeta 1-42 respectively. In the presence of Abeta 1-42, the beads come into close proximity. The excitation of the donor beads provokes the release of singlet oxygen molecules that trigger a cascade of energy transfer in the acceptor beads, resulting in light emission. Light emission is measured after 1 hour incubation (excitation at […] and emission at 615 nm).
as §2

[3] = biological target: T2, BACE2 (Homo sapiens, UniProt Q9Y5Z0); assay: BACE2 biochemical FRET based assay; details: recombinant BACE2, 450 minutes at room temperature, pH 5.0; for IC50: read-out: Biochemical FRET based assay pIC50 (converted)
T2 construct: recombinant BACE2 protein in a final concentration of 0.4 μg/ml
T2 sequence (Q9Y5Z0 63-518): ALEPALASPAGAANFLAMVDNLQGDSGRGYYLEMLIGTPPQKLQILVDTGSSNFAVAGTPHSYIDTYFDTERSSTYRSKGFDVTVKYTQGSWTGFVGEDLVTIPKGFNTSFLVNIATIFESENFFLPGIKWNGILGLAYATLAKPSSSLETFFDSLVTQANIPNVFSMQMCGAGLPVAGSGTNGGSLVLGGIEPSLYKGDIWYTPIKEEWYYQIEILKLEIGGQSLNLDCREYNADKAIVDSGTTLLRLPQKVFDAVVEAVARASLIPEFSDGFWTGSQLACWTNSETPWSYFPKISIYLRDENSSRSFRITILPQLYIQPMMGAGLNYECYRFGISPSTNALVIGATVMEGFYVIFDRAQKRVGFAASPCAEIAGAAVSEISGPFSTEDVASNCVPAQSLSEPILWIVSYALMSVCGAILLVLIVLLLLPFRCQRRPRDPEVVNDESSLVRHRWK
Excerpt: BACE2 Biochemical FRET Based Assay
as §1, with “assay” for “assay is an APP derived 13 amino acids peptide that”, “the beta-site APP-cleaving enzyme,” for “BACE1,”
Briefly in a 384-well format recombinant BACE2 protein in a final concentration of 0.4 μg/ml is incubated for 450 minutes at room temperature with 10 μM substrate in incubation buffer (50 mM Citrate buffer pH 5.0, 0.05% PEG, no DMSO) in the absence or presence of compound. Next the amount of proteolysis is directly measured by fluorescence measurement at T=0 and T=450 (excitation at 320 nm and emission at 405 nm). Results are expressed in RFU (Relative Fluorescence Units), as difference between T450 and T0.
as §2

Structure (SMILES) | IC50 [1] | Cellular αLisa assay in SKNBE2 cells Abeta 42 pIC50 [2] | IC50 [3] | Biochemical FRET based assay pIC50 [1] | Biochemical FRET based assay pIC50 [3] | IC50 [2]
CC1OCC2(c3cc(NC(=O)c4ccc(OC(F)F)cn4)ccc3F)N=C(N)C(C)(C#N)CC12 (single isomer, unassigned) [35a] | 5.62 nM | 8.32 | 83.2 nM | – | – | –
COc1cnc(C(=O)Nc2ccc(F)c([C@]34CO[C@H](C)[C@H]3C[C@@](C)(C#N)C(N)=N4)c2)cn1 [1b] | – | 8.47 | – | 7.89 | 7.21 | –
CC1OCC2(c3cc(NC(=O)c4cnc(OCF)cn4)cc(F)c3F)N=C(N)C(C)(C#N)CC12 (single isomer, unassigned) [31c] | 15.5 nM | 7.57 | 158 nM | – | – | –
CC1OCC2(c3cc(NC(=O)c4ccc(C#N)cn4)cc(F)c3F)N=C(N)C(C)(C#N)CC12 (single isomer, unassigned) [33d] | 708 nM | 5.78 | 8910 nM | – | – | –
C[C@@]1(C#N)C[C@@H]2[C@@H](C(F)(F)F)OC[C@]2(c2cc(NC(=O)c3ccc(F)cn3)ccc2F)N=C1N [2c] | – | 8.32 | – | 8.73 | 8.3 | –
CC1(C#N)CC2C(CF)OCC2(c2cc(NC(=O)c3ccc(C#N)cn3)ccc2F)N=C1N (stereo not shown) [24a] | 2.14 nM | – | – | – | – | 2.88 nM
COc1cnc(C(=O)Nc2ccc(F)c([C@]34CO[C@H](C)[C@H]3C[C@](C)(C#N)C(N)=N4)c2)cn1 [5b] | – | 7.46 | – | 7.06 | 6.17 | –
C[C@@H]1OC[C@@]2(c3cc(NC(=O)c4ccc(C#N)cn4)ccc3F)N=C(N)[C@](C)(C#N)C[C@@H]12 [6c] | – | 5.14 | – | 5.12 | <5 | –
N#Cc1ccc(C(=O)Nc2ccc(F)c([C@]34CO[C@H](C(F)(F)F)[C@H]3CCC(N)=N4)c2)nc1 [11a] | – | 8.58 | – | 8.53 | 6.88 | –
COc1cnc(C(=O)Nc2ccc(F)c([C@@]34CO[C@@H](C)[C@@H]3C[C@@](C)(C#N)C(N)=N4)c2)cn1 [5c] | – | <5.05 | – | <5 | <5 | –
CC1(C#N)CC2C(C(F)F)OCC2(c2cc(NC(=O)c3cnc(OCF)cn3)ccc2F)N=C1N (single isomer, unassigned) [25b] | 52.5 nM | 7.13 | 891 nM | – | – | –
CC1OCC2(c3cc(NC(=O)c4ccc(OC(F)F)cn4)ccc3F)N=C(N)C(C)(C#N)CC12 (stereo not shown) [compound 35] | 6.76 nM | – | 85.1 nM | – | – | 10 nM
C[C@@H]1OC[C@@]2(c3cc(NC(=O)c4ccc(C#N)cn4)ccc3F)N=C(N)[C@@](C)(C#N)C[C@@H]12 [4c] | – | 6.22 | – | 6.28 | 5.27 | –
C[C@]1(C#N)C[C@@H]2[C@@H](CF)OC[C@]2(c2cc(NC(=O)c3ccc(C#N)cn3)ccc2F)N=C1N [24b] | 14.5 nM | – | 158 nM | – | – | 31.6 nM
CC1(C#N)CC2C(C(F)F)OCC2(c2cc(NC(=O)c3cnc(OCF)cn3)ccc2F)N=C1N (single isomer, unassigned) [25a] | 8.91 nM | 7.74 | 141 nM | – | – | –
C[C@]1(C#N)C[C@@H]2[C@@H](C(F)(F)F)OC[C@]2(c2cc(NC(=O)c3cnc(OCF)cn3)ccc2F)N=C1N [7e] | – | 7.33 | – | 7.68 | 6.24 | –
C[C@]1(C#N)C[C@@H]2[C@@H](C(F)(F)F)OC[C@]2(c2cc(NC(=O)c3ccc(F)cn3)ccc2F)N=C1N [2f] | – | 7.47 | – | 7.83 | 7.35 | –
C[C@@H]1OC[C@@]2(c3cc(NC(=O)c4cnc(OCF)cn4)ccc3F)N=C(N)[C@@](C)(C#N)C[C@@H]12 (single isomer, unassigned) [9c] | – | 5.8 | – | 5.76 | <5 | –
C[C@@]1(C#N)C[C@@H]2[C@@H](CF)OC[C@]2(c2cc(NC(=O)c3cnc(-n4cncn4)cn3)ccc2F)N=C1N [23a] | 12.3 nM | – | 355 nM | – | – | 25.7 nM
N#Cc1ccc(C(=O)Nc2ccc(F)c([C@@]34CO[C@@H](C(F)(F)F)[C@@H]3CCC(N)=N4)c2)nc1 [11b] | – | 5.9 | – | – | – | –
CC1(C#N)CC2C(C(C)(F)F)OCC2(c2cc(NC(=O)c3cnc(OC(F)F)cn3)ccc2F)N=C1N (stereo not shown) [compound 38] | 0.955 nM | – | – | – | – | 3.8 nM
Cl.NC1=N[C@]2(c3cc(NC(=O)c4ccc(F)cn4)ccc3F)CO[C@@H](C(F)(F)F)[C@@H]2CC1 [12b] | – | 5.45 | – | 5.27 | – | –
CC(C)(F)[C@H]1OC[C@]2(c3cc(NC(=O)c4ccc(C#N)cn4)ccc3F)N=C(N)[C@](C)(C#N)C[C@H]12 [21a] | – | 8.62 | – | – | – | –
Cc1cc(C#N)cnc1C(=O)Nc1ccc(F)c(C23COC(C(C)(F)F)C2CC(C)(C#N)C(N)=N3)c1 (stereo not shown) [compound 37] | 1.91 nM | – | – | – | – | 1.78 nM
